In patent US8088819B2, “Derivatives of substituted 3-phenyl-1-(phenylthienyl)propan-1-ones and of 3-phenyl-1-(phenylfuranyl) propan-1-ones, preparation and use” (priority 2006, dated 2012):

Assays:
Type in all cases: in vivo
[1] = tested on: target genes of the PPARs; assay: Expression of PPARδ target genes in skeletal muscle of the C57Bl6 mouse (compound 2), quantitative RT-PCR; conditions: C57Bl6 mice; 50 mpk; 14 days
Source text: The PPARδ agonistic properties of the molecules according to the invention previously measured in vitro should be reflected at the level of the skeletal muscle in an overexpression of the target genes directly under the control of the PPARδ receptor: the genes that were investigated in this experiment are the genes coding for UCP2 (uncoupling protein 2, mitochondrial transporter involved in thermoregulation) and PDK4 (pyruvate dehydrogenase kinase isoform 4, enzyme of carbohydrate metabolism).
Female C57Bl6 mice were kept under a cycle of light and darkness of 12/12 hours at a constant temperature of 20±3° C. After acclimation for one week, the mice were weighed and put into groups of 6 animals selected so that the distribution of their body weight, of their plasma lipid levels and of total cholesterol determined for the first time before the experiment, is uniform. […]
1 μg of total RNA (quantified on the basis of the spectrophotometer reading) was then reverse-transcribed to complementary DNA by reaction for 1 hour at 37° C. in a total volume of 30 μl containing buffer 1× (Invitrogen), 1.5 mM of DTT, 0.18 mM of dNTPs (Promega), 200 ng of pdN6 (Amersham), 30 U of RNase inhibitor (Promega) and 1 μl of MMLV-RT (Invitrogen). […]
The amount of fluorescence emitted is directly proportional to the amount of complementary DNA present at the start of the reaction and amplified during PCR. […]

[2] = tested on: target genes of the PPARs; assay: Expression of PPARδ target genes in skeletal muscle of the C57Bl6 mouse (compounds 4 and 7), quantitative RT-PCR; conditions: C57Bl6 mice; 50 mpk; 14 days
Source text: The PPARδ agonistic properties of the molecules according to the invention previously measured in vitro should be reflected at the level of the skeletal muscle in overexpression of the target genes directly under the control of the PPARδ receptor: the genes that were investigated in this experiment are the genes coding for PDK4 (enzyme of carbohydrate metabolism), CPT1b (enzyme of lipid metabolism), UCP2 and UCP3 (mitochondrial transporters involved in thermoregulation).
(§1) Female C57Bl6 mice were kept under a cycle of light and darkness of 12/12 hours at a constant temperature of 20±3° C. After acclimation for one week, the mice were weighed and put into groups of 6 animals selected so that the distribution of their body weight, of their plasma lipid levels and of total cholesterol determined for the first time before the experiment, is uniform. The test compounds were suspended in carboxymethylcellulose (Sigma C4888) and administered by intragastric force feeding, at a rate of once per day for 14 days at the chosen dose. The animals had free access to water and to food (standard diet). At the end of the experiment, the animals were anesthetized after fasting for 4 hours, a blood sample was taken using anticoagulant (EDTA), then the mice were weighed and euthanased. The plasma was separated by centrifugation at 3000 rev/min for 20 minutes, and the samples were stored at +4° C.
Samples of skeletal muscle tissue were taken and frozen immediately in liquid nitrogen and then stored at −80° C. for later analyses.
The total RNA was extracted from fragments of gastrocnemius skeletal muscle using the RNeasy® Fibrous Tissue kit (Qiagen) following the manufacturer's instructions.
1 μg of total RNA (quantified based on the spectrophotometer reading) was then reverse-transcribed to complementary DNA by reaction for 1 hour at 37° C. in a total volume of 30 μl containing buffer 1× (Invitrogen), 1.5 mM of DTT, 0.18 mM of dNTPs (Promega), 200 ng of pdN6 (Amersham), 30 U of RNase inhibitor (Promega) and 1 μl of MMLV-RT (Invitrogen).
The quantitative PCR experiments were carried out using the MyiQ Single-Color Real-Time PCR Detection System (Biorad, Marnes-la-Coquette, France) and were performed using the iQ SYBR Green Supermix kit following the supplier's recommendations, in 96-well plates, on 5 μl of diluted reverse transcription reaction mixture with a hybridization temperature of 60° C. Primer pairs specific to the genes under investigation were used:
The amount of fluorescence emitted is directly proportional to the amount of complementary DNA present at the start of the reaction and amplified during PCR. For each target investigated, a range is produced by successive dilutions of a pool constituted of a few microliters of various reverse transcription reaction mixtures. The relative expression levels of each target are thus determined using the efficacy curves obtained with the points in the range.
The levels of expression of the genes of interest were then normalized relative to the level of expression of the reference gene 18S (whose specific primers are: […]
The induction factor, i.e. the ratio of the relative signal (induced by the compound according to the invention) to the mean of the relative values of the control group, was then calculated for each sample. The higher this factor, the greater the gene expression activating character of the compound. The final result is represented as the mean of the induction values in each experimental group.

C57Bl6 mouse = assay: Plasma cholesterol assays and lipoprotein distribution in the C57Bl6 mouse (compounds 4 and 7); conditions: for lipid profile: C57Bl6 mice treated for 14 days; for plasma HDL-cholesterol levels / plasma total cholesterol levels / plasma HDL-cholesterol level (distribution of cholesterol in the plasma lipoprotein fractions): C57Bl6 mouse, 14 days; for plasma HDL-cholesterol levels / plasma total cholesterol levels: 50 mpk oral; for plasma HDL-cholesterol level (distribution of cholesterol in the plasma lipoprotein fractions): 50 mpk
Procedure: The effect of the compounds according to the invention was evaluated in vivo in the C57Bl6 mouse after 14 days of treatment by the oral route. At the end of the treatment, the distribution of cholesterol in the various plasma lipoprotein fractions was determined. This was compared with the profile obtained in the control animals (not treated with the compounds according to the invention). The effect of the compounds according to the invention was evaluated in the C57Bl6 mouse by measuring the plasma levels of total cholesterol and of HDL-cholesterol after 14 days of treatment by the oral route. These levels were compared with those obtained with control animals (not treated with the compounds according to the invention). The measured difference provides evidence of the antilipemic effect of the compounds according to the invention.
as §1
The plasma concentrations of total cholesterol were measured by enzyme assays (bioMérieux-Lyon-France) following the supplier's recommendations.
The low-density lipoproteins (VLDL and LDL) were precipitated with phosphotungstate. The precipitate was removed by centrifugation. The HDL-cholesterol present in the supernatant was quantified by enzyme assays (bioMérieux-Lyon-France) following the supplier's recommendations.
The various lipid fractions (VLDL, LDL, HDL) of the plasma were separated by gel filtration chromatography. The concentrations of cholesterol were then measured in each fraction by enzyme assays (bioMérieux-Lyon-France) following the supplier's recommendations.

Structure (SMILES) | expression of the gene coding for PDK4 in skeletal muscle [1] | expression of the gene coding for UCP2 in skeletal muscle [1] | expression of the gene coding for CPT1b in skeletal muscle [2] | expression of the gene coding for PDK4 in skeletal muscle [2] | expression of the gene coding for UCP2 in skeletal muscle [2] | expression of the gene coding for UCP3 in skeletal muscle [2] | lipid profile (C57Bl6 mouse) | plasma HDL-cholesterol levels (C57Bl6 mouse) | plasma total cholesterol levels (C57Bl6 mouse) | plasma HDL-cholesterol level (distribution of cholesterol in the plasma lipoprotein fractions) (C57Bl6 mouse)
CC(C)(Oc1ccc(CCC(=O)c2ccc(-c3ccc(C(F)(F)F)cc3)s2)c(Cl)c1Cl)C(=O)O [Compound 2, 2-(2,3-dichloro-4-(3-oxo-3-(5-(4-(trifluoromethyl)phenyl)thien-2-yl)propyl)phenoxy)-2-methylpropanoic acid] | significant increase | significant increase | – | – | – | – | – | – | – | –
CC(C)(Oc1ccc(CCC(O)c2ccc(-c3ccc(C(F)(F)F)cc3)s2)c(Cl)c1Cl)C(=O)O (stereo not drawn) [Compound 4, 2-(2,3-dichloro-4-(3-hydroxy-3-(5-(4-(trifluoromethyl)phenyl)thien-2-yl)propyl)phenoxy)-2-methylpropanoic acid] | – | – | significant increase | significant increase | significant increase | significant increase | improve | significantly increased | significantly increased | increased
CC(C)(Oc1ccc(CCC(OCc2ccccc2)c2ccc(-c3ccc(C(F)(F)F)cc3)s2)c(Cl)c1Cl)C(=O)O (stereo not drawn) [Compound 7, 2-(4-(3-(benzyloxy)-3-(5-(4-(trifluoromethyl)phenyl)thien-2-yl)propyl)-2,3-dichlorophenoxy)-2-methylpropanoic acid] | – | – | significant increase | significant increase | significant increase | significant increase | improve | nonsignificant increase | significantly increased | increased
